Earlier results in PMC5762859, “Distribution analysis of epertinib in brain metastasis of HER2-positive breast cancer by imaging mass spectrometry and prospect for antitumor activity” (Scientific Reports, 2018).

Tests used:
[1] = target: T1, breast cancer resistance protein (BCRP) (Homo sapiens, UniProt Q9UNQ0); conditions: cited from earlier work
T1 construct: permeability and efflux ratio of epertinib across Caco-2 cell monolayers; endogenous in cells; host or cells: Caco-2
T1 sequence (Q9UNQ0 1-655): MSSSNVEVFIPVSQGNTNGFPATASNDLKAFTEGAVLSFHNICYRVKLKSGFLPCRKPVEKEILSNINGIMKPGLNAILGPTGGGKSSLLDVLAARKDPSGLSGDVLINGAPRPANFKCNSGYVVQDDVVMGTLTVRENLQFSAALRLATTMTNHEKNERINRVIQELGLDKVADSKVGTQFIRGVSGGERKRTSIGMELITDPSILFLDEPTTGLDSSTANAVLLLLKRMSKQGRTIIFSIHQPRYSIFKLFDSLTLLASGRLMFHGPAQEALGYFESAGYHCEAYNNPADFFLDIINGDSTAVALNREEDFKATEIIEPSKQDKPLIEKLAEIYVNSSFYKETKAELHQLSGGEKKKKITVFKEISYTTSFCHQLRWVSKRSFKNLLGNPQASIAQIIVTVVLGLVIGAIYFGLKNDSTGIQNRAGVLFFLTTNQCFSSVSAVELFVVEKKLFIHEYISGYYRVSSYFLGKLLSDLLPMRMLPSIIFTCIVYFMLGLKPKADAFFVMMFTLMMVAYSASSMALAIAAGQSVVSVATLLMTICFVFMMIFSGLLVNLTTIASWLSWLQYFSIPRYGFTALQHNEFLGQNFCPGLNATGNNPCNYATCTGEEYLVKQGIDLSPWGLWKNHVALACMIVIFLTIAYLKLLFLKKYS

[2] = test system: HER2-positive metastatic breast cancer patients; conditions: historical data, combination with trastzumab; cited from earlier work
P-glycoprotein (P-gp) = target: T2, P-glycoprotein (P-gp) (Homo sapiens, UniProt P08183); conditions: cited from earlier work
T2 construct: permeability and efflux ratio of epertinib across Caco-2 cell monolayers; endogenous in cells; host or cells: Caco-2

[3] = healthy volunteers, single oral 250 mg [14C]-lapatinib; cited from earlier work

T2 sequence (P08183 whole entry): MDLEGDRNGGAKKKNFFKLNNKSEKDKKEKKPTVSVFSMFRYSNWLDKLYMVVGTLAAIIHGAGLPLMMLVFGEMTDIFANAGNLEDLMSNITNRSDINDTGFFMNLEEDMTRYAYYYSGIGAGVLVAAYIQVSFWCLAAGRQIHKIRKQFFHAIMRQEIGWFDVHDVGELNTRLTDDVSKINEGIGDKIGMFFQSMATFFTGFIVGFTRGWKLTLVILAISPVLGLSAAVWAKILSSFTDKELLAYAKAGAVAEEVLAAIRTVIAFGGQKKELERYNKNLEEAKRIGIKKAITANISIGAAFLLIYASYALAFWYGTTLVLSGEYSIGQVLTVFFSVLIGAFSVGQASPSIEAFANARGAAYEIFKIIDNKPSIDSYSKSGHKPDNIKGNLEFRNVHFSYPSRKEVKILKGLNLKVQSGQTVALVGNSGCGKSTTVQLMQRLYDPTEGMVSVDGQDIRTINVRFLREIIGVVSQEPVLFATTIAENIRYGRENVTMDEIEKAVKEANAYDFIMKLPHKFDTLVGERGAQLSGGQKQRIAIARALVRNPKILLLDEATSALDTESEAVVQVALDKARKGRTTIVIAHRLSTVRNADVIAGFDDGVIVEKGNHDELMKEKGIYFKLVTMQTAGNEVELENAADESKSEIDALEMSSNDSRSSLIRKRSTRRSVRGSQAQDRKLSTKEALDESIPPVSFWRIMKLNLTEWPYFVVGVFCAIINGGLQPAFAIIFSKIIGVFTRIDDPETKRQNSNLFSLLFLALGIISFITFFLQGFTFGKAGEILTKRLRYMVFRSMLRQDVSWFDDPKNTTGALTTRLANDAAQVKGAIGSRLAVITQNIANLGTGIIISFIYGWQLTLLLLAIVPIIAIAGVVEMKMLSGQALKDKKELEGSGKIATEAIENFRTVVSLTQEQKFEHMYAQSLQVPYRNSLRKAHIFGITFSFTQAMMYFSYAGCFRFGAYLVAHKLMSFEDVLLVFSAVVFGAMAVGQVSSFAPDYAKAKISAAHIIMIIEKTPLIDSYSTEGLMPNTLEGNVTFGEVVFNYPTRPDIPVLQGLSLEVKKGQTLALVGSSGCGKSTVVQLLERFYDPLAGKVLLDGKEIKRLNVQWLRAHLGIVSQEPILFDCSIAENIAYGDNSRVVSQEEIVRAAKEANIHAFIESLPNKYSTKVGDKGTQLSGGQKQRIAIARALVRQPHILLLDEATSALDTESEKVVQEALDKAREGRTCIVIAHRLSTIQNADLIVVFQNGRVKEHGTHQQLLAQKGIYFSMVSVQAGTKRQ

| SMILES | BCRP substrate [1] | Objective response rate (ORR) [2] | P-gp substrate (P-glycoprotein (P-gp)) | Mean plasma concentration of total radioactivity at Cmax [3] |
| --- | --- | --- | --- | --- |
| Cc1cc(Nc2ncnc3ccc(NC4=NC(C)(C)CO4)cc23)ccc1Oc1ccn2ncnc2c1 [tucatinib] | substrates | 26% | substrates |  |
| CCOc1cc2ncc(C#N)c(Nc3ccc(OCc4ccccn4)c(Cl)c3)c2cc1NC(=O)/C=C/CN(C)C [neratinib] | substrates |  | substrates |  |
| CS(=O)(=O)CCNCc1ccc(-c2ccc3ncn[14c](Nc4ccc(OCc5cccc(F)c5)c(Cl)c4)c3c2)o1.Cc1ccc(S(=O)(=O)O)cc1.O [[^14C]-lapatinib] |  |  |  | 720 ng eq./mL |
| CN(C)C/C=C/C(=O)Nc1cc2c(Nc3ccc(F)c(Cl)c3)ncnc2cc1O[C@H]1CCOC1 [afatinib] | substrates |  | substrates |  |
